Among the data in patent US20150353495A1 (PORTOLA PHARMACEUTICALS, INC., priority 2010, published 2015) are IC50 values, retold here.

Common to all, as to type: biochemical
The target of one test is T1, JAK3 (Homo sapiens, UniProt P52333).
T1 construct: 5 μl of catalytic domain recombinant Kinase enzyme+Tyr peptide substrate (Invitrogen, CA); purchased Invitrogen
Nature of the test: Z'-LYTE kinase assay JAK3. Put shortly:
(§1)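 Z′-LYTE FRET, Tyr6 peptide, recombinant catalytic domain + ATP, 1 h RT, 1% DMSO final, duplicates; protease development 1 h RT; fluorescence read.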

The target of another test is T2, JAK1 (Homo sapiens, UniProt P23458).
T2 construct: 5 μl of catalytic domain recombinant Kinase enzyme+Tyr peptide substrate (Invitrogen, CA); purchased Invitrogen
T2 sequence (P23458 875-1153 limits assumed): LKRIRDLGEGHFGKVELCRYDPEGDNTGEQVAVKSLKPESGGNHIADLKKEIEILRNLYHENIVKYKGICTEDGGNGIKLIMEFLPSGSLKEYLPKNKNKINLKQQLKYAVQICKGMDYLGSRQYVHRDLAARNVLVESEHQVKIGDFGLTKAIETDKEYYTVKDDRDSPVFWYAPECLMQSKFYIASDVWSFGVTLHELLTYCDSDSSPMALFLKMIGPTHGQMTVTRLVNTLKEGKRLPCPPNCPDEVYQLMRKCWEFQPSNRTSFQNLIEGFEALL
Kind of test: Z'-LYTE kinase assay JAK1. In outline:
as §1

The target in a further test is T3, JAK2 (Homo sapiens, UniProt O60674).
T3 construct: 5 μl of catalytic domain recombinant Kinase enzyme+Tyr peptide substrate (Invitrogen, CA); purchased Invitrogen
T3 sequence (O60674 849-1124 limits assumed): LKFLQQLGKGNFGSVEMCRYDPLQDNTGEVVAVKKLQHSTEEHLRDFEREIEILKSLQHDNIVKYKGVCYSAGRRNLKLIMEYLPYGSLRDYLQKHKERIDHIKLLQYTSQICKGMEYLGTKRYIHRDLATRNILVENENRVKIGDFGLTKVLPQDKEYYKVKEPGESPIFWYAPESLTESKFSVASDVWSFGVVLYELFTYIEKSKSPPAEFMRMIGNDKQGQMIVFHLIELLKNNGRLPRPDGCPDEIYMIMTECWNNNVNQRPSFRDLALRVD
Kind of test: Z'-LYTE kinase assay JAK2. In outline: as §1

T1 sequence (P52333 822-1111 limits assumed): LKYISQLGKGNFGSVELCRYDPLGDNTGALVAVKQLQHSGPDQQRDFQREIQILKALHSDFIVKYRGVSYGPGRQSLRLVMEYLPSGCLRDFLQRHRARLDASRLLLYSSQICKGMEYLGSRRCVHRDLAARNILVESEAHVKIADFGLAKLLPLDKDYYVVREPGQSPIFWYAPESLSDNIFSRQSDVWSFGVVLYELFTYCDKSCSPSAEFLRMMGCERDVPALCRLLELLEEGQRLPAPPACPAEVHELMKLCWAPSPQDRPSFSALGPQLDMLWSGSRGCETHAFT

A word on the IC50: it is the midpoint of a concentration-inhibition curve. High values mean weaker potency, low ones greater potency. With `CN(C)C(=O)C1CN(c2ccc(Nc3cc(NCc4ccccc4)c(C(N)=O)cn3)cc2)C1` [Example 331, 4-(benzylamino)-6-(4-(3-(dimethylcarbamoyl)azetidin-1-yl)phenylamino)nicotinamide], the values for the IC50 at JAK3, against JAK1 and at JAK2 were 1 to 10 nM, 100 to 1000 nM and 100 to 1000 nM, respectively.

Turning to `COc1ccc(Nc2cc(NCc3ccccc3)c(C(N)=O)cn2)cc1Cl` [Example 332, 4-(benzylamino)-6-(3-chloro-4-methoxyphenylamino)nicotinamide], the values for the IC50 against JAK3, at JAK1 and at JAK2 were 10 to 100 nM, > 1000 nM and > 1000 nM, respectively.

In the case of `CC(=O)N1CC(c2ccc(Nc3cc(NCc4cncc(F)c4)c(C(N)=O)cn3)cc2)C1` [Example 334, 6-(4-(1-acetylazetidin-3-yl)phenylamino)-4-((5-fluoropyridin-3-yl)methylamino)nicotinamide], the results for the half-inhibitory concentration (IC50) against JAK3, against JAK1 and against JAK2 were 10 to 100 nM, 100 to 1000 nM and 100 to 1000 nM, respectively.

For `CS(=O)(=O)N1CC(c2ccc(Nc3cc(NCc4ccccc4)c(C(N)=O)cn3)cc2)C1` [Example 335, 4-(benzylamino)-6-(4-(1-(methylsulfonyl)azetidin-3-yl)phenylamino)nicotinamide], the 50% inhibitory concentration (IC50) lay in the range of 10 to 100 nM on JAK3, 100 to 1000 nM at JAK1 and 100 to 1000 nM at JAK2.

With `COCC(=O)N1CC(c2ccc(Nc3cc(NCc4ccccc4)c(C(N)=O)cn3)cc2)C1` [Example 336, 4-(benzylamino)-6-(4-(1-(2-methoxyacetyl)azetidin-3-yl)phenylamino)nicotinamide], the IC50 against JAK3 lay within 1 to 10 nM; on JAK1, 100 to 1000 nM; against JAK2, 100 to 1000 nM.

`CN(C)C(=O)N1CC(c2ccc(Nc3cc(NCc4ccccc4)c(C(N)=O)cn3)cc2)C1` [Example 337, 4-(benzylamino)-6-(4-(1-(dimethylcarbamoyl)azetidin-3-yl)phenylamino)nicotinamide]: the 50% inhibitory concentration (IC50) is 1 to 10 nM on JAK3, 100 to 1000 nM at JAK1 and 100 to 1000 nM against JAK2.

For the compound `NC(=O)c1cnc(Nc2ccc(C3CN(C(=O)N4CCCC4)C3)cc2)cc1NCc1ccccc1` [Example 338, 4-(benzylamino)-6-(4-(1-(pyrrolidine-1-carbonyl)azetidin-3-yl)phenylamino)nicotinamide], the IC50 was in the range of 1 to 10 nM at JAK3, 100 to 1000 nM on JAK1 and 100 to 1000 nM at JAK2.

For the compound `CN(C)S(=O)(=O)N1CC(c2ccc(Nc3cc(NCc4ccccc4)c(C(N)=O)cn3)cc2)C1` [Example 339, 4-(benzylamino)-6-(4-(1-(N,N-dimethylsulfamoyl)azetidin-3-yl)phenylamino)nicotinamide], the results for the IC50 on JAK3, on JAK1 and against JAK2 were 10 to 100 nM, > 1000 nM and > 1000 nM, respectively.

With `CNC(=O)Cc1ccc(Nc2cc(NCc3ccccc3)c(C(N)=O)cn2)cc1` [Example 340, 4-(benzylamino)-6-(4-(2-(methylamino)-2-oxoethyl)phenylamino)nicotinamide], the results for the IC50 on JAK3, against JAK1 and at JAK2 were 10 to 100 nM, 100 to 1000 nM and 100 to 1000 nM, respectively.

Take `NC(=O)c1cnc(Nc2ccc(CC(=O)NCC(F)(F)F)cc2)cc1NCc1ccccc1` [Example 341, 4-(benzylamino)-6-(4-(2-oxo-2-(2,2,2-trifluoroethylamino)ethyl)phenylamino)nicotinamide]: the IC50 fell in the range of 1 to 10 nM against JAK3, 100 to 1000 nM against JAK1 and 100 to 1000 nM on JAK2.

With `CN(C)C(=O)C1CN(c2ccc(Nc3cc(NCc4ccccc4)c(C(N)=O)cn3)cc2F)C1` [Example 342, 4-(benzylamino)-6-(4-(3-(dimethylcarbamoyl)azetidin-1-yl)-3-fluorophenylamino)nicotinamide], the half-maximal inhibitory concentration (IC50) against JAK3 was in the range of 1 to 10 nM; against JAK1, 100 to 1000 nM; at JAK2 it was 100 to 1000 nM.

Take `CN(C)C(=O)C1CCN(c2ccc(Nc3cc(NCc4ccccc4)c(C(N)=O)cn3)cc2)CC1` [Example 343, 4-(benzylamino)-6-(4-(4-(dimethylcarbamoyl)piperidin-1-yl)phenylamino)nicotinamide]: the IC50 against JAK3 lay within 1 to 10 nM; against JAK1 it was 100 to 1000 nM; on JAK2 it was 10 to 100 nM.

Regarding `CN(C)C(=O)C1CCN(c2ccc(Nc3cc(NCc4cccc5sccc45)c(C(N)=O)cn3)cc2)CC1` [Example 344, 4-(benzo[b]thiophen-4-ylmethylamino)-6-(4-(4-(dimethylcarbamoyl)piperidin-1-yl)phenylamino)nicotinamide], the IC50 against JAK3 is 1 to 10 nM; against JAK1, 100 to 1000 nM; on JAK2 it was 10 to 100 nM.

On to `CN(C)C(=O)C1CCN(c2ccc(Nc3cc(NCc4cccc5[nH]ccc45)c(C(N)=O)cn3)cc2)CC1` [Example 345, 4-((1H-indol-4-yl)methylamino)-6-(4-(4-(dimethylcarbamoyl)piperidin-1-yl)phenylamino)nicotinamide], for which the 50% inhibitory concentration (IC50) against JAK3 is < 1 nM; at JAK1 it was 1 to 10 nM; on JAK2, 1 to 10 nM.

For the compound `CS(=O)(=O)Cc1ccc(Nc2cc(NCc3cccc4ccsc34)c(C(N)=O)cn2)cc1` [Example 346, 4-(benzo[b]thiophen-7-ylmethylamino)-6-(4-(methylsulfonylmethyl)phenylamino)nicotinamide], the figures for the IC50 against JAK3, against JAK1 and on JAK2 were < 1 nM, 10 to 100 nM and 10 to 100 nM, respectively.

`CS(=O)(=O)Cc1ccc(Nc2cc(NCc3ccccc3)c(C(N)=O)cn2)cc1` [Example 347, 4-(benzylamino)-6-(4-(methylsulfonylmethyl)phenylamino)nicotinamide]: the IC50 on JAK3 lay in the range of 1 to 10 nM; at JAK1, 100 to 1000 nM; against JAK2 it was 100 to 1000 nM.

`CS(=O)(=O)Cc1ccc(Nc2cc(NCc3cccc4[nH]ccc34)c(C(N)=O)cn2)cc1` [Example 348, 4-((1H-indol-4-yl)methylamino)-6-(4-(methylsulfonylmethyl)phenylamino)nicotinamide]: the figures for the IC50 against JAK3, against JAK1 and on JAK2 were < 1 nM, 1 to 10 nM and 1 to 10 nM, respectively.

Consider `CN(C)C(=O)C1CN(c2ccc(Nc3cc(NCc4cccc5ccsc45)c(C(N)=O)cn3)cc2F)C1` [Example 349, 4-(benzo[b]thiophen-7-ylmethylamino)-6-(4-(3-(dimethylcarbamoyl)azetidin-1-yl)-3-fluorophenylamino)nicotinamide], for which the IC50 on JAK3 fell in the range of 1 to 10 nM; against JAK1 it was 100 to 1000 nM; against JAK2, 10 to 100 nM.

Turning to `CN(C)C(=O)C1CCN(c2ccc(Nc3cc(NCc4cccc5ccsc45)c(C(N)=O)cn3)cc2)CC1` [Example 350, 4-(benzo[b]thiophen-7-ylmethylamino)-6-(4-(4-(dimethylcarbamoyl)piperidin-1-yl)phenylamino)nicotinamide], the IC50 is < 1 nM against JAK3, 10 to 100 nM at JAK1 and 10 to 100 nM at JAK2.

Regarding `CN(C)C(=O)C1CCN(c2ccc(Nc3cc(NCc4cccc5ccsc45)c(C(N)=O)cn3)cc2Cl)CC1` [Example 351, 4-(benzo[b]thiophen-7-ylmethylamino)-6-(3-chloro-4-(4-(dimethylcarbamoyl)piperidin-1-yl)phenylamino)nicotinamide], the half-inhibitory concentration (IC50) is 1 to 10 nM on JAK3, 100 to 1000 nM at JAK1 and 100 to 1000 nM against JAK2.

For the compound `CC(=O)NCc1ccc(Nc2cc(NCc3cccc4ccsc34)c(C(N)=O)cn2)cc1` [Example 352, 6-(4-(acetamidomethyl)phenylamino)-4-(benzo[b]thiophen-7-ylmethylamino)nicotinamide], the values for the IC50 on JAK3, against JAK1 and against JAK2 were 1 to 10 nM, 10 to 100 nM and 10 to 100 nM, respectively.

For the compound `CS(=O)(=O)NCc1ccc(Nc2cc(NCc3cccc4ccsc34)c(C(N)=O)cn2)cc1` [Example 353, 4-(benzo[b]thiophen-7-ylmethylamino)-6-(4-(methylsulfonamidomethyl)phenylamino)nicotinamide], the IC50 against JAK3 is 1 to 10 nM; on JAK1, 100 to 1000 nM; on JAK2, 10 to 100 nM.

Take `CN(C)C(=O)NCc1ccc(Nc2cc(NCc3cccc4ccsc34)c(C(N)=O)cn2)cc1` [Example 354, 4-(benzo[b]thiophen-7-ylmethylamino)-6-(4-((3,3-dimethylureido)methyl)phenylamino)nicotinamide]: the IC50 on JAK3 was 1 to 10 nM; against JAK1, 100 to 1000 nM; against JAK2, 10 to 100 nM.

On to `CN(C)S(=O)(=O)NCc1ccc(Nc2cc(NCc3cccc4ccsc34)c(C(N)=O)cn2)cc1` [Example 355, 4-(benzo[b]thiophen-7-ylmethylamino)-6-(4-((N,N-dimethylsulfamoylamino)methyl)phenylamino)nicotinamide], for which the half-inhibitory concentration (IC50) fell in the range of 1 to 10 nM on JAK3, 100 to 1000 nM against JAK1 and 100 to 1000 nM against JAK2.

Turning to `CC(=O)N(C)c1ccc(Nc2cc(NC3(c4ccccc4)CC3)c(C(N)=O)cn2)cc1` [Example 361, 6-(4-(N-methylacetamido)phenylamino)-4-(1-phenylcyclopropylamino)nicotinamide], the 50% inhibitory concentration (IC50) is 100 to 1000 nM against JAK3, > 1000 nM against JAK1 and > 1000 nM against JAK2.

Regarding `NC(=O)c1cnc(Nc2ccc(N3CCCCC3)cc2)cc1NC1(c2ccccc2)CC1` [Example 362], the IC50 at JAK3 was 10 to 100 nM; on JAK1, > 1000 nM; on JAK2 it was > 1000 nM.

Take `CC(=O)N1CCN(c2cccc(Nc3cc(NC4(c5ccccc5)CC4)c(C(N)=O)cn3)c2)CC1` [Example 371, 6-(3-(4-acetylpiperazin-1-yl)phenylamino)-4-(1-phenylcyclopropylamino)nicotinamide]: the half-maximal inhibitory concentration (IC50) against JAK3 is 10 to 100 nM; on JAK1, > 1000 nM; against JAK2, 100 to 1000 nM.

For `CC(=O)N1CCN(c2cccc(N(C(C)=O)c3cc(NC4(c5ccccc5)CC4)c(C(N)=O)cn3)c2)CC1` [Example 372, 6-(N-(3-(4-acetylpiperazin-1-yl)phenyl)acetamino)-4-(1-phenylcyclopropylamino)nicotinamide], the IC50 at JAK3, against JAK1 and against JAK2 was > 1000 nM each time.
